Results as given in patent US20060258670A1, “New phenylpyridylpiperazine compounds” (priority 2005, published 2006).

Key:
[1] = target: T1, type H3 central histamine receptors (Mus musculus, UniProt P58406); assay: Cerebral levels of N^t-methylhistamine in the NMRI mouse (ex vivo, RIA); settings: one hour after treatment, versus carrier
T1 construct: from tissue; host or cells: brain of living NMRI mice
Protocol: The purpose of this study, which was carried out in accordance with the method of Taylor et al. (Biochem. Pharm., 1992, 44, 1261-1267), is to evaluate the ex vivo activity of the compounds of the present invention as antagonists of type H3 central histamine receptors. […] An increase in the cerebral concentrations of N^t-methylhistamine indicates an increase in the turn-over of histamine by blockage of the type H3 central histamine receptors.
NMRI mice (18-20 g) are treated intraperitoneally or orally with compounds of the present invention or with their carrier (20 ml/kg). One hour after the pharmacological treatment, the animals are sacrificed, and their brains are removed, frozen in liquid nitrogen, weighed and homogenised in 0.1N HClO4 at 4° C. The homogenised products are centrifuged (15 000 g, 17 min, 4° C.). The supernatants are recovered and divided into aliquots. The aliquots are frozen in, liquid nitrogen and stored at −80° C. until analysis.
Determination of the cerebral levels of N^t-methylhistamine is carried out by radioimmunological assay (RIA) using an assay kit. The tissue levels of N^t-methylhistamine are expressed in […] of fresh brain. The comparison of the cerebral levels of N^t-methylhistamine between animals treated with the carrier (controls) and animals treated with compounds of the present invention is carried out by single-factor variance analysis followed, if necessary, by a complementary analysis (Dunnett's test).

[2] = system: Adult male Wistar rats; assay: Electroencephalographic recordings on freely moving rats; type: in vivo; settings: Wistar rat, EEG
Protocol: Adult male Wistar rats were chronically implanted with electrodes placed over the frontal and panetal cortex. Cortical electroencephalogram (EEG) was recorded from rats placed inside cages in a sound attenuating-room. Compounds and vehicle were administered in a random order at 10:00 AM on the same days with a minimum of 3 days between each administration, allowing each rat to serve as its own control. Absolute power of slow wave delta band activity (1-4 Hz), that predominates during slow wave sleep and disappears during wakefulness and rapid eyes movement sleep, was averaged over successive periods of 30 min. Over 30 min, low and high values of slow wave delta power are signs of arousal and sleep, respectively.

T1 sequence (P58406 whole entry): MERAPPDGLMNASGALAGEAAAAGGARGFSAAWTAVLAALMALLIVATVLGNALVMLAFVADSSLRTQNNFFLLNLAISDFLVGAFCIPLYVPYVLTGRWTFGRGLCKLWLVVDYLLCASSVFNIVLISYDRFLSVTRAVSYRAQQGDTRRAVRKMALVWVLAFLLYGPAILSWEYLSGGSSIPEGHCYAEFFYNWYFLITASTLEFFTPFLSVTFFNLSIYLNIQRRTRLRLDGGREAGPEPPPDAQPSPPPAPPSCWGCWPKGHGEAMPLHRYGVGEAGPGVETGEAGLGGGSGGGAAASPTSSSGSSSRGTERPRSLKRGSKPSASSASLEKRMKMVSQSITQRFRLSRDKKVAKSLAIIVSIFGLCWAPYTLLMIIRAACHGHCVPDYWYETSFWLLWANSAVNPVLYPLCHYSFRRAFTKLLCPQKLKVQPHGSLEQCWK

| increase of endogenous cerebral concentrations of N^t-methylhistamine ([1]; 10 mg/kg PO) | increase of endogenous cerebral concentrations of N^t-methylhistamine ([1]; 3 mg/kg PO) | SMILES | duration of significant reduction of slow wave delta power (cortical activation and arousal) ([2]; 0.3 mg/kg) | sleep latency: first slow wave sleep episode after administration ([2]; 3 mg/kg, control group 45±5 minutes) |
| --- | --- | --- | --- | --- |
| 197% |  | CCN1CCN(c2ccc(-c3ccc(S(=O)(=O)N4CCCCC4)cc3)cn2)CC1.Cl.Cl [Example 5] |  |  |
| 121% |  | CC(C)N1CCN(c2ccc(-c3ccc(S(=O)(=O)N4CCN(C)CC4)cc3)cn2)CC1.Cl.Cl.Cl [Example 9, 1-Isopropyl-4-(5-{4-[(4-methylpiperazin-1-yl)sulphonyl]phenyl}pyridin-2-yl)piperazine trihydrochloride] |  |  |
|  | 168% | CC(C)CN1CCN(c2ccc(-c3ccc(S(=O)(=O)N4CCOCC4)cc3)cn2)CC1.Cl.Cl [Example 21, 4-({4-[6-(4-Isobutylpiperazin-1-yl)pyridin-3-yl]phenyl}sulphonyl)-morpholine dihydrochloride] |  |  |

| SMILES | increase of endogenous cerebral concentrations of N^t-methylhistamine ([1]; 10 mg/kg PO) | increase of endogenous cerebral concentrations of N^t-methylhistamine ([1]; 3 mg/kg PO) | duration of significant reduction of slow wave delta power (cortical activation and arousal) ([2]; 0.3 mg/kg) | sleep latency: first slow wave sleep episode after administration ([2]; 3 mg/kg, control group 45±5 minutes) |
| --- | --- | --- | --- | --- |
| CC(C)N1CCN(c2ccc(-c3ccc(S(=O)(=O)N4CCOCC4)cc3)cn2)CC1.Cl.Cl [Example 1] | 105% |  | 150 min | 73 ± 5 min |
